Measurements taken from publication PMC6518372, “An enzymatically stable GIP/xenin hybrid peptide restores GIP sensitivity, enhances beta cell function and improves glucose homeostasis in high-fat-fed mice” (Diabetologia, 2016).
Marks after values point to notes of the source that are not given here.

Tests used:
purified porcine DPP-4 = purified porcine DPP-4 (Sus scrofa, UniProt P22411); test: DPP-4 degradation / in vitro DPP-4 half-life; conditions: 20 μg peptide, 5 mU purified DPP-4, up to 12 h, HPLC
Chain of purified porcine DPP-4 (P22411 whole entry): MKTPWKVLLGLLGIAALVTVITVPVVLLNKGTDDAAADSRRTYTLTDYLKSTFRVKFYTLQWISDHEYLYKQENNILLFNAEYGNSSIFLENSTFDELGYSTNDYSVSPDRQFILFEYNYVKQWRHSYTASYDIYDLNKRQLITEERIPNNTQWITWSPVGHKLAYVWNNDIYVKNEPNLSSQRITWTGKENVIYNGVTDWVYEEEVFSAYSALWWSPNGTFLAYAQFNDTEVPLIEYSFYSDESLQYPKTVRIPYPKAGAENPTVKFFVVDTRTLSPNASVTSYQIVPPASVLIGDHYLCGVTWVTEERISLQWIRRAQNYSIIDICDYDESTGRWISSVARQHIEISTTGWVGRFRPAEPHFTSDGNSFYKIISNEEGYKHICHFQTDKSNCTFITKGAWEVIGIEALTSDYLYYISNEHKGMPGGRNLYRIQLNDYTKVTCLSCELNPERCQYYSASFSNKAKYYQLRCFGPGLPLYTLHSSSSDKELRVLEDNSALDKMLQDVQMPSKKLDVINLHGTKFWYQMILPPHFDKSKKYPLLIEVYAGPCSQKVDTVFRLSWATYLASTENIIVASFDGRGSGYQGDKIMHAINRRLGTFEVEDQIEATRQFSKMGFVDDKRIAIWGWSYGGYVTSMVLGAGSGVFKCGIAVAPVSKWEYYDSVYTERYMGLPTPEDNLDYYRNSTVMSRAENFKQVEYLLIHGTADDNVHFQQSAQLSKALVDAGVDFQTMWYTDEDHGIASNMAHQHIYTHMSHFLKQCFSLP
Method: Peptide (20 μg) DPP-4 degradation profiles (5 μl purified DPP-4, 5 mU; Sigma-Aldrich, UK) were assessed as described previously.
For calculation of experimental molecular masses, peptide samples (1 µg) were mixed with α-cyano-4-hydroxycinnamic acid (1 µg) and applied to a Voyager-DE BioSpectrometry Workstation and mass-to-charge (m/z) ratio verses peak intensity recorded by MALDI-TOF mass spectrometry. DPP-4 half-life was assessed by incubating peptides (37°C in 50 mmol/L TEA-HCl; pH 7.8) with 5 mU purified porcine DPP-4 for 0, 1, 2, 4, 8 and 12 h. Degradation profiles were obtained using rp-HPLC analysis and HPLC peak area data used to calculate percentage intact peptide remaining at each time point.

lean control mice = test: Acute glucose-lowering and insulin-releasing effects in lean mice; type: in vivo, mouse; conditions: 25 nmol/kg i.p. with glucose 18 mmol/kg, non-fasted lean mice
Method: Specific information on acute feeding, glucose homeostasis and insulin-secretory studies is given in ESM Methods. To assess the impact of GIP and neurotensin receptor activation on (DAla^2)GIP/xenin-8-Gln-induced glucose-lowering and insulin-secretory actions in mice, (DAla^2)GIP/xenin-8-Gln was administered by i.p. injection (25 nmol/kg body weight) in combination with glucose (18 mmol/kg) in the absence and presence of GIP(6-30)Cex-K^40[Pal] and SR142948A (both at 25 nmol/kg), and glucose and insulin were measured as described above. In a final series of experiments, test peptides (25 nmol/kg) or saline vehicle (0.9% wt/vol. NaCl) were injected 4 h before a glucose load (18 mmol/kg) in non-fasted mice and blood glucose and plasma insulin measured as above. […]
(§1) Animals Acute animal studies were conducted in male NIH Swiss mice (12-14 weeks old, Harlan Ltd, UK) maintained on a standard rodent maintenance diet (10% fat, 30% protein and 60% carbohydrate, Trouw Nutrition, UK). Prior to commencement of longer term studies, all animals, except lean controls that continued on rodent maintenance diet, were maintained on a high-fat diet (45% fat, 35% carbohydrate and 20% protein, Special Diet Services, UK) for 12 weeks. This diet […]
(§2) individually in an air-conditioned room at 22 ± 2 °C with a 12 h light:12 h dark cycle and had free access to food and water. Animal experiments were carried out in accordance with the UK Animals (Scientific Procedures) Act 1986.
(§3) Acute in vivo effects in lean mice For food intake studies, fasted (18 h) mice were given intraperitoneal (i.p) injections of peptides at a dose of 25, 100 or 250 nmol/kg bw. Mice were then allowed free access to normal chow for 180 mins and cumulative food intake measured. For glucose homeostasis and […]

high-fat-fed mice [1] = test: Subchronic 21 day twice-daily treatment: energy intake, body weight, body composition, non-fasted glucose and insulin; type: in vivo, mouse; conditions: 25 nmol/kg i.p. twice daily
Method: (§4) Twice-daily (09:30 and 17:30 hours) i.p. injections of saline vehicle, (DAla^2)GIP or (DAla^2)GIP/xenin-8-Gln hybrid (both at 25 nmol/kg) were administered for 21 days in high-fat-fed mice. Energy intake and body weight were monitored daily and non-fasting blood glucose and plasma insulin concentrations were assessed at 3 day intervals. On day 21, a non-fasted 24 h glucose profile was conducted. At the end of the treatment period, i.p. glucose tolerance (18 mmol/kg), biological response to GIP (18 mmol/kg glucose in combination with native GIP [25 nmol/kg], i.p.) and insulin sensitivity (15 U/kg; i.p.) tests were performed. Terminal analysis included measurement of total body fat and lean mass by dual-energy X-ray absorptiometry (DEXA) scanning (Piximus Densitometer; Inside Outside Sales, Fitchburg, WI, USA) and extraction of pancreatic tissue for analysis as detailed below.
Blood samples were collected from the cut tip on the tail vein of conscious mice into chilled fluoride/heparin glucose micro-centrifuge tubes (Sarstedt, Numbrecht, Germany). Blood glucose was measured directly using a hand-held Ascencia Contour blood glucose meter (Bayer Healthcare, Newbury, UK). Plasma and pancreatic insulin was assayed by a modified dextran-coated charcoal radioimmunoassay.
In vitro insulin release studies Cells were seeded at a density of 150,000 cells/well in 24-well plates (Nunc, Roskilde, Denmark) and allowed to attach overnight at 37 °C. Culture medium was removed and cells were pre-incubated in Krebs–Ringer bicarbonate buffer (containing 0.5% (w/v) BSA, pH 7.4) supplemented with 1.1 mmol/l glucose for 40 min at 37 °C. Following the pre-incubation, experiments (n=8) were performed in presence of glucose (5.6 or 16.7 mmol/l) with a […]
incubations, aliquots of assay buffer were collected from each well and stored at -20 °C prior to […]
as §1, §2, §3

high-fat-fed mice [2] = test: Metabolic response to native GIP after 21 day treatment; type: in vivo, mouse; conditions: 25 nmol/kg twice daily for 21 days
Method: as §4

high-fat-fed mice [3] = test: Pancreatic insulin content and islet histology after 21 day treatment; type: in vivo, mouse; conditions: 21 days at 25 nmol/kg twice daily i.p.
Method: Pancreas tissue was excised, divided longitudinally and either snap frozen for extraction of insulin using acid ethanol (5 ml/g), as described previously, or processed for immunohistochemical examination. Immunohistochemistry was performed as described previously. For specific details, please see ESM Methods. […]
insulin secretory studies, blood glucose and plasma insulin were measured immediately prior to and 15, 30, 60 and 105 min after i.p. administration of glucose alone (18 mmol/kg bw) or in combination with test peptides (each at 25 nmol/kg bw) in non-fasted mice.
Immunohistochemistry Tissue sections were deparaffinised, rehydrated and probed with primary antibodies: mouse anti-insulin antibody (1:500; Abcam, ab6995), guinea-pig anti-glucagon antibody (PCA2/4, 1:400; raised in-house) or rabbit anti-Ki67 (1:200; Abcam ab16667), as appropriate. We confirmed the specificity of all antibodies in blocking experiments using the native peptide. Sections were then incubated with secondary antibody, Alexa Fluor 488 goat anti-guinea pig IgG (1:400), Alexa Fluor 594 goat anti-mouse IgG (1:400) or Alexa Fluor 594 goat anti-rabbit IgG (1:400); respectively. TUNEL staining was performed using fluorescein in situ cell detection kit (Roche Diagnostics, Germany). The slides were viewed under a FITC (488 nm) or TRITC filter (594 nm) using a fluorescent microscope (Olympus system microscope, model BX51) and photographed using a DP70 camera adapter system. Islet parameters were analysed using CellF image analysis software (Olympus Soft Imaging Solutions, GmbH).

[4] = 21 days, high-fat-fed mice, vs high-fat-fed controls
[5] = AUC 0–105 min after i.p. glucose 18 mmol/kg with GIP 25 nmol/kg, 18 h fasted high-fat-fed mice, mean ± SEM, 6–8 mice

## CC[C@H](C)[C@H](NC(=O)[C@H](CO)NC(=O)[C@H](Cc1ccc(O)cc1)NC(=O)[C@H](CC(=O)O)NC(=O)[C@H](CO)NC(=O)[C@@H](NC(=O)[C@H](Cc1ccccc1)NC(=O)[C@@H](NC(=O)CNC(=O)[C@H](CCC(=O)O)NC(=O)[C@@H](C)NC(=O)[C@@H](N)Cc1ccc(O)cc1)[C@@H](C)O)[C@@H](C)CC)C(=O)N[C@@H](C)C(=O)N[C@@H](CCSC)C(=O)N[C@@H](CC(=O)O)C(=O)N[C@@H](CCCCN)C(=O)N[C@H](C(=O)N[C@@H](Cc1c[nH]cn1)C(=O)N[C@@H](CCC(N)=O)C(=O)N[C@@H](CCC(N)=O)C(=O)N[C@@H](CC(=O)O)C(=O)N[C@@H](Cc1ccccc1)C(=O)N[C@H](C(=O)N[C@@H](CC(N)=O)C(=O)N[C@@H](Cc1c[nH]c2ccccc12)C(=O)N[C@@H](CC(C)C)C(=O)N[C@@H](CC(C)C)C(=O)N[C@@H](C)C(=O)N[C@@H](CCC(N)=O)C(=O)N[C@@H](CCCCN)C(=O)NCC(=O)N[C@@H](CCCCN)C(=O)N[C@@H](CCCCN)C(=O)N[C@@H](CC(N)=O)C(=O)N[C@@H](CC(=O)O)C(=O)N[C@@H](Cc1c[nH]c2ccccc12)C(=O)N[C@@H](CCCCN)C(=O)N[C@@H](Cc1c[nH]cn1)C(=O)N[C@@H](CC(N)=O)C(=O)N[C@H](C(=O)N[C@H](C(=O)N[C@@H](CCC(N)=O)C(=O)O)[C@@H](C)O)[C@@H](C)CC)C(C)C)[C@@H](C)CC [(DAla^2)GIP]
Purified porcine DPP-4
  Stability when incubated in the presence of DPP-4: remained fully intact
Lean control mice; 15 min post injection
  Blood glucose: significant (p < 0.05) reduction in blood glucose levels
Lean control mice; 30 min post injection, vs glucose alone
  Blood glucose: significantly (p < 0.05) lowered blood glucose values
Lean control mice; vs glucose alone
  Overall AUC blood glucose: significantly (p < 0.05) decreased overall AUC blood glucose values
high-fat-fed mice [1]; [4]
  Body weight: no significant effect
  Cumulative energy intake: no significant effect
high-fat-fed mice [1]; day 21, high-fat-fed mice
  Non-fasting 24 h blood glucose profile: also reduced, but not to the same extent
  Total body fat and lean mass (DEXA): unaltered
high-fat-fed mice [1]; day 21, high-fat-fed mice, vs high-fat-fed controls
  Non-fasted plasma insulin: reduced plasma insulin levels compared with high-fat-fed controls on day 21 but the difference did not reach statistical significance
high-fat-fed mice [1]; high-fat-fed mice, from day 12 onwards
  Non-fasting blood glucose compared with lean controls: not significantly different from lean controls
high-fat-fed mice [2]; high-fat-fed mice, glucose 18 mmol/kg with GIP 25 nmol/kg
  Decrease of overall blood glucose AUC in response to native GIP compared with saline-treated control: 36%
high-fat-fed mice [2]; [5]
  Metabolic response to GIP: Blood glucose AUC: 1029.5 ± 138.0 mmol·min/L
  Metabolic response to GIP: Plasma insulin AUC: 20,308 ± 3805**^,††† pmol/l × min
high-fat-fed mice [3]
  Beta cell area: no significant effect on overall pancreatic islet area or beta cell area
  Pancreatic islet area: no significant effect on overall pancreatic islet area or beta cell area
high-fat-fed mice [3]; vs all other groups
  Number of islets per mm^2: significantly (p < 0.05 to p < 0.01) augmented
high-fat-fed mice [3]; vs high-fat-fed controls
  Alpha cell area: decreased (p < 0.001) alpha cell area
  Frequency of beta cell apoptosis (TUNEL): significantly (p < 0.01) decreased
